{"source": "the supplement of paper PMC10307832", "assay_in_all_cases": "relative viability (nuclei count vs DMSO), 5 days (fraction); higher = more cells survive", "key": {"TGX 221 + Dasatinib": {"compound": "CC1=CN2C(=O)C=C(N=C2C(=C1)C(C)NC3=CC=CC=C3)N4CCOCC4 [TGX 221] + Cc1nc(Nc2ncc(C(=O)Nc3c(C)cccc3Cl)s2)cc(N2CCN(CCO)CC2)n1 [Dasatinib] (partner 0.075 µM)", "method_in_brief": "(§1)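 The day after seeding in 1536-well plates, lung cancer cell lines were treated by pin tool with a single drug, or with a fixed anchor-drug dose together with five library-drug doses (not always all listed) in √10 steps. After 5 days, a combined fix-and-stain solution (final 0.05% Triton X-100, 1% formaldehyde, 1 ug/ml Hoechst) was added. Nuclei counted on 4× images gave relative viability as treated counts over vehicle counts, reported as the median of duplicate plates.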"}, "[1]": {"compound": "O=C(CCCCCCNC(=O)c1cnc(N(c2ccccc2)c2ccccc2)nc1)NO [Ricolinostat] + N=C(N)NC(=N)NCCc1ccccc1 [Phenformin] (partner 250 µM)", "method_in_brief": "as §1"}, "[2]": {"compound": "O=C(CCCCCCNC(=O)c1cnc(N(c2ccccc2)c2ccccc2)nc1)NO [Ricolinostat] + CCNC(=O)c1noc(-c2cc(C(C)C)c(O)cc2O)c1-c1ccc(CN2CCOCC2)cc1 [Luminespib] (partner 0.01 µM)", "method_in_brief": "as §1"}, "TGX 221 + Luminespib": {"compound": "CC1=CN2C(=O)C=C(N=C2C(=C1)C(C)NC3=CC=CC=C3)N4CCOCC4 [TGX 221] + CCNC(=O)c1noc(-c2cc(C(C)C)c(O)cc2O)c1-c1ccc(CN2CCOCC2)cc1 [Luminespib] (partner 0.01 µM)", "method_in_brief": "as §1"}}}
{"cell line": "NCI-H1792", "values": [{"measurement": "relative viability", "setting": "TGX 221 + Dasatinib; first compound 0.08 µM", "value": 0.831}, {"measurement": "relative viability", "setting": "TGX 221 + Dasatinib; first compound 0.253 µM", "value": 0.699}, {"measurement": "relative viability", "setting": "TGX 221 + Dasatinib; first compound 0.8 µM", "value": 0.785}, {"measurement": "relative viability", "setting": "TGX 221 + Dasatinib; first compound 2.53 µM", "value": 0.7}, {"measurement": "relative viability", "setting": "TGX 221 + Dasatinib; first compound 8 µM", "value": 0.503}, {"measurement": "relative viability", "setting": "[1]; first compound 0.08 µM", "value": 0.29}, {"measurement": "relative viability", "setting": "[1]; first compound 0.253 µM", "value": 0.233}, {"measurement": "relative viability", "setting": "[1]; first compound 0.8 µM", "value": 0.178}, {"measurement": "relative viability", "setting": "[1]; first compound 2.53 µM", "value": 0.245}, {"measurement": "relative viability", "setting": "[2]; first compound 0.08 µM", "value": 0.297}, {"measurement": "relative viability", "setting": "[2]; first compound 0.253 µM", "value": 0.417}, {"measurement": "relative viability", "setting": "[2]; first compound 0.8 µM", "value": 0.373}, {"measurement": "relative viability", "setting": "[2]; first compound 2.53 µM", "value": 0.418}, {"measurement": "relative viability", "setting": "TGX 221 + Luminespib; first compound 0.08 µM", "value": 0.52}, {"measurement": "relative viability", "setting": "TGX 221 + Luminespib; first compound 0.253 µM", "value": 0.498}, {"measurement": "relative viability", "setting": "TGX 221 + Luminespib; first compound 0.8 µM", "value": 0.418}, {"measurement": "relative viability", "setting": "TGX 221 + Luminespib; first compound 2.53 µM", "value": 0.375}, {"measurement": "relative viability", "setting": "TGX 221 + Luminespib; first compound 8 µM", "value": 0.293}]}
